Reference: ChEMBL document CHEMBL2424548, “Substrate-based peptidomimetic inhibitors of the Murray Valley encephalitis virus NS2B/NS3 serine protease: a P1-P4 SAR study” (Eur J Med Chem, 2013)
Non-standard residues stand in square brackets, D forms with d. Residues, ends and D or L forms follow the SMILES beside them. *: point of attachment. hArg = N=C(N)NCCCC[C@H](N)C(=O)O; Agmatine = N=C(N)NCCCCN*; Nle = CCCC[C@H](N)C(=O)O

Assays:
[1] = Inhibition of Murray Valley encephalitis virus NS2B/NS3 protease using Pyr-RTKR-AMC as substrate after 1 hr by fluorescence assay
[2] = Chemical stability of the compound at 100 uM after 2 hrs in presence of MVEV NS2B/NS3 protease; format: physicochemical
Prothrombin = Prothrombin (Homo sapiens, UniProt P00734); experiment: Inhibition of human thrombin after 1 hr by fluorescence assay
[3] = Competitive inhibition of Murray Valley encephalitis virus NS2B/NS3 protease using Pyr-RTKR-AMC as substrate after 1 hr by Lineweaver-Burk plot analysis

SMILES | IC50 [1] | further results
CCCC[C@H](NC(=O)[C@H](CCCCN)NC(C)=O)C(=O)NCCCCNC(=N)N (Ac-Lys-[Nle]-Agmatine) | > 100 µM | 
N=C(N)NCCCCNC(=O)[C@H](CCCCN)NC(=O)[C@@H](N)CCCCN | > 100 µM | 
CC(=O)N[C@@H](CCCCN)C(=O)N[C@@H](CCCCN)C(=O)NN | > 100 µM | 
N=C(N)NCCCCNC(=O)[C@H](CCCCN)NC(=O)[C@H](CCCCN)NC(=O)Cc1cccc(-c2ccccc2)c1 | 9.1 µM | 
CC(=O)N[C@@H](CCCCNC(=N)N)C(=O)N[C@@H](CCCCN)C(=O)NCCCCNC(=N)N (Ac-[hArg]-Lys-Agmatine) | 31.4 µM | 
CC(=O)N[C@@H](CCCCN)C(=O)N[C@@H](CCCCN)C(=O)NCCCCCNC(=N)N | 75.7 µM | 
CC(C)C(=O)N[C@@H](CCCCN)C(=O)N[C@@H](CCCCN)C(=O)NCCCCNC(=N)N | 81.7 µM | 
Cc1ccccc1CC(=O)N[C@@H](CCCCN)C(=O)N[C@@H](CCCCN)C(=O)NCCCCNC(=N)N | 60.5 µM | 
CCCC(=O)N[C@@H](CCCCN)C(=O)N[C@@H](CCCCN)C(=O)NCCCCNC(=N)N | 50.9 µM | 
N=C(N)NCCCCNC(=O)[C@H](CCCCN)NC(=O)[C@H](CCCCN)NC(=O)Cc1ccccc1 | 16.3 µM | 
CC(=O)N[C@@H](CCCCN)C(=O)N[C@@H](CCCCN)C(=O)NCCCCCN | > 100 µM | 
CC(C)CC(=O)N[C@@H](CCCCN)C(=O)N[C@@H](CCCCN)C(=O)NCCCCNC(=N)N | 69.3 µM | 
CCC(=O)N[C@@H](CCCCN)C(=O)N[C@@H](CCCCN)C(=O)NCCCCNC(=N)N | 49.1 µM | 
CCCCNC(=O)[C@H](CCCCN)NC(=O)[C@H](CCCCN)NC(C)=O | > 100 µM | 
CC(=O)N[C@@H](CCCCN)C(=O)N[C@@H](CCCCN)C(=O)NCCCCNC(N)=O | > 100 µM | 
N=C(N)NCCCCNC(=O)[C@H](CCCCN)NC(=O)[C@H](CCCCN)NC(=O)Cc1ccc(Cl)cc1 | 14.1 µM | 
CC(=O)N[C@@H](CCCCN)C(=O)N[C@@H](CCCCN)C(=O)N[C@H]1CC[C@@H](NC(=N)N)CC1 | > 100 µM | 
N=C(N)N1CCC(CNC(=O)[C@H](CCCCN)NC(=O)[C@H](CCCCN)NC(=O)Cc2cccc(-c3ccccc3)c2)CC1 | 4.9 µM | Stability [2]: Stable; IC50 (Prothrombin): > 100 µM; Ki [3]: 2.5 µM
CC(=O)N[C@@H](CCCCN)C(=O)N[C@@H](CCCCN)C(=O)NC/C=C/CNC(=N)N | 58.3 µM | 

SMILES | IC50 [1] | further results
N=C(N)NCCCCNC(=O)[C@H](CCCCN)NC(=O)[C@H](CCCCN)NC(=O)Cc1ccccc1Cl | 54 µM | 
N=C(N)NCCCCNC(=O)[C@H](CCCCN)NC(=O)[C@H](CCCCN)NC(=O)CCc1ccccc1 | 30.7 µM | 
N=C(N)NCCCCNC(=O)[C@H](CCCCN)NC(=O)[C@H](CCCCN)NC(=O)c1ccccc1 | 32.3 µM | 
CC(=O)N[C@@H](CCCCN)C(=O)N[C@@H](CCCCN)C(=O)NCCCNC(=N)N | > 100 µM | 
N=C(N)NCCCCNC(=O)[C@H](CCCCN)NC(=O)[C@H](CCCCN)NC(=O)Cc1ccc(-c2ccccc2)cc1 | 18.4 µM | 
N=C(N)NCCCCNC(=O)[C@H](CCCCN)NC(=O)[C@H](CCCCN)NC(=O)Cc1cccc(Cl)c1 | 53.9 µM | 
CC(=O)N[C@@H](CCCCN)C(=O)N[C@@H](CCCCN)C(=O)NC/C=C\CNC(=N)N | > 100 µM | 
CC(=O)N[C@@H](CCCCN)C(=O)N[C@@H](CCCCN)C(=O)NCC1CCN(C(=N)N)CC1 | 9.2 µM | 
CC(=O)N[C@@H](CCCCN)C(=O)N[C@@H](CCCCN)C(=O)NCCCCNC(=N)N | 16.8 µM | 
CC(=O)N[C@@H](CCCCN)C(=O)N[C@@H](CCCCN)C(=O)NCC#CCNC(=N)N | 12.7 µM | 
N=C(N)NCCCCNC(=O)[C@H](CCCCN)NC(=O)[C@H](CCCCN)NC(=O)c1cccc2ccccc12 | 28.3 µM | 
Cc1cccc(CC(=O)N[C@@H](CCCCN)C(=O)N[C@@H](CCCCN)C(=O)NCCCCNC(=N)N)c1 | 15.7 µM | 
CC(C)(C)C(=O)N[C@@H](CCCCN)C(=O)N[C@@H](CCCCN)C(=O)NCCCCNC(=N)N | > 100 µM | 
N=C(N)NCCCCNC(=O)[C@H](CCCCN)NC(=O)[C@H](CCCCN)NC(=O)c1ccc2ccccc2c1 | 24 µM | 
CCCC[C@H](NC(C)=O)C(=O)N[C@@H](CCCCN)C(=O)NCCCCNC(=N)N (Ac-[Nle]-Lys-Agmatine) | 45.2 µM | 
CC(=O)N[C@@H](CCCCN)C(=O)N[C@@H](CCCCN)C(=O)NCCCCCCN | > 100 µM | 
Cc1ccc(CC(=O)N[C@@H](CCCCN)C(=O)N[C@@H](CCCCN)C(=O)NCCCCNC(=N)N)cc1 | 15.2 µM | 
CC(=O)N[C@@H](CCCCN)C(=O)N[C@@H](CCCCN)C(=O)NCCCCN | > 100 µM | 
CC(=O)N[C@@H](CCCCN)C(=O)N[C@@H](CCCCNC(=N)N)C(=O)NCCCCNC(=N)N (Ac-Lys-[hArg]-Agmatine) | 79.2 µM | 
